In ChEMBL document CHEMBL1255486, “Effect of vicriviroc on the QT/corrected QT interval and central nervous system in healthy subjects” (Antimicrob Agents Chemother, 2010):

What was measured:
Homo sapiens [1] = assay: Toxicity in healthy human assessed as back pain at 250 mg/kg, po once daily for 7 days; type: organism-based; design: dose 250 mg/kg, route oral; details: in vivo, 168 h
[2] = AUC (0 to 24 hrs) in healthy human at 150 […], po once daily for 7 days; type: ADME, organism-based; design: time < 24 hr, dose 150 mg/kg, route oral; details: plasma
[3] = Cmax in healthy human at 30 mg/kg, po after 10 days; type: ADME, organism-based; design: dose 30 mg/kg, route oral; details: in vivo
Homo sapiens [4] = assay: Toxicity in healthy human assessed as headache at 250 […], po once daily for 7 days; type: organism-based; design: route oral; details: in vivo, 168 h
Homo sapiens [5] = assay: Toxicity in healthy human assessed as nausea at 250 […], po administered as single dose; type: organism-based; design: route oral; details: in vivo
[6] = Tmax in healthy human at 250 mg/kg, po administered as single dose after 1 day; type: ADME, organism-based; design: dose 250 mg/kg, route oral; details: in vivo
Homo sapiens [7] = assay: Toxicity in healthy human assessed as fatigue at 300 […], po administered as single dose; type: organism-based; design: route oral; details: in vivo
Homo sapiens [8] = assay: Toxicity in healthy human assessed as pollakiuria at 200 […], po administered as single dose; type: organism-based; design: route oral; details: in vivo
[9] = Cmax in healthy human at 150 […], po after 10 days; type: ADME, organism-based; design: dose 150 mg/kg, route oral; details: in vivo
Homo sapiens [10] = assay: Toxicity in healthy human assessed as EEG abnormality at 300 mg/kg, po administered as single dose; type: organism-based; design: dose 300 mg/kg, route oral; details: in vivo
Homo sapiens [11] = assay: Toxicity in healthy human assessed as puncture site pain at 250 […], po once daily for 7 days; type: organism-based; design: route oral; details: in vivo, 168 h
[12] = Tmax in healthy human at 150 […], po once daily for 7 days measured after 1 day of last dose; type: ADME, organism-based; design: dose 150 mg/kg, route oral; details: in vivo
Homo sapiens [13] = assay: Toxicity in healthy human assessed as increase in blood […] at 300 […], po once daily for 7 days; type: organism-based; design: route oral; details: in vivo, 168 h
[14] = Tmax in healthy human at 200 mg/kg, po administered as single dose after 1 day; type: ADME, organism-based; design: dose 200 mg/kg, route oral; details: in vivo
[15] = Cmax in healthy human at 250 mg/kg, po once daily for 7 days measured after 1 day of last dose; type: ADME, organism-based; design: dose 250 mg/kg, route oral; details: in vivo
Homo sapiens [16] = assay: Toxicity in healthy human assessed as headache at 200 […], po once daily for 7 days; type: organism-based; design: route oral; details: in vivo, 168 h
[17] = AUC (0 to 24 hrs) in healthy human at 200 mg/kg, po once daily for 7 days measured after 1 day of last dose; type: ADME, organism-based; design: time < 24 hr, dose 200 mg/kg, route oral; details: plasma
[18] = AUC (0 to 24 hrs) in healthy human at 150 […], po once daily for 7 days measured after 1 day of last dose; type: ADME, organism-based; design: time < 24 hr, dose 150 mg/kg, route oral; details: plasma
Homo sapiens [19] = assay: Toxicity in healthy human assessed as nausea at 250 […], po once daily for 7 days; type: organism-based; design: route oral; details: in vivo, 168 h
[20] = Cmax in healthy human at 250 mg/kg, po once daily for 7 days; type: ADME, organism-based; design: dose 250 mg/kg, route oral; details: in vivo
[21] = Cmax in healthy human at 250 mg/kg, po administered as single dose after 1 day; type: ADME, organism-based; design: dose 250 mg/kg, route oral; details: in vivo
Homo sapiens [22] = assay: Toxicity in healthy human assessed as nausea at 150 […], po once daily for 7 days; type: organism-based; design: route oral; details: in vivo, 168 h
Homo sapiens [23] = assay: Toxicity in healthy human assessed as EEG abnormality at 250 mg/kg, po administered as single dose; type: organism-based; design: dose 250 mg/kg, route oral; details: in vivo
Homo sapiens [24] = assay: Toxicity in healthy human assessed as EEG abnormality at 150 […], po once daily for 7 days; type: organism-based; design: dose 150 mg/kg, route oral; details: in vivo, 168 h
Homo sapiens [25] = assay: Toxicity in healthy human assessed as fatigue at 200 […], po administered as single dose; type: organism-based; design: route oral; details: in vivo
[26] = Tmax in healthy human at 30 mg/kg, po after 10 days; type: ADME, organism-based; design: dose 30 mg/kg, route oral; details: in vivo
Homo sapiens [27] = assay: Toxicity in healthy human assessed as pollakiuria at 200 […], po once daily for 7 days; type: organism-based; design: route oral; details: in vivo, 168 h
[28] = AUC (0 to infinity) in healthy human at 250 mg/kg, po administered as single dose after 1 day; type: ADME, organism-based; design: time infinity, dose 250 mg/kg, route oral; details: plasma
Homo sapiens [29] = assay: Toxicity in healthy human assessed as pollakiuria at 250 […], po administered as single dose; type: organism-based; design: route oral; details: in vivo
[30] = Tmax in healthy human at 200 mg/kg, po once daily for 7 days; type: ADME, organism-based; design: dose 200 mg/kg, route oral; details: in vivo
[31] = Tmax in healthy human at 300 mg/kg, po administered as single dose after 1 day; type: ADME, organism-based; design: dose 300 mg/kg, route oral; details: in vivo
Homo sapiens [32] = assay: Toxicity in healthy human assessed as EEG abnormality at 250 mg/kg, po once daily for 7 days; type: organism-based; design: dose 250 mg/kg, route oral; details: in vivo, 168 h
[33] = Cmax in healthy human at 200 mg/kg, po administered as single dose after 1 day; type: ADME, organism-based; design: dose 200 mg/kg, route oral; details: in vivo
[34] = Cmax in healthy human at 150 […], po once daily for 7 days; type: ADME, organism-based; design: dose 150 mg/kg, route oral; details: in vivo
[35] = Tmax in healthy human at 150 […], po after 10 days; type: ADME, organism-based; design: dose 150 mg/kg, route oral; details: in vivo
Homo sapiens [36] = assay: Cardiotoxicity in healthy human assessed as change in corrected QT interval at 150 […], po after 10 days by ECG; type: toxicity, organism-based; design: dose 150 mg/kg, route oral; details: in vivo, 240 h

AUC at 24 h [2]: 6060 ng·h/mL
Cmax [3]: 403 ng/mL
Tmax [6]: 2 h
Cmax [9]: 1900 ng/mL
Tmax [12]: 1.75 h
Tmax [14]: 2 h
Cmax [15]: 791 ng/mL
AUC at 24 h [17]: 5390 ng·h/mL
AUC at 24 h [18]: 3260 ng·h/mL
Cmax [20]: 1040 ng/mL
Cmax [21]: 984 ng/mL
Tmax [26]: 2 h
AUC(0-inf) [28]: 11000 ng·h/mL
Tmax [30]: 2 h
Tmax [31]: 2.9 h
Cmax [33]: 731 ng/mL
Cmax [34]: 649 ng/mL
Tmax [35]: 1.5 h
Structure (SMILES): COC[C@@H](c1ccc(C(F)(F)F)cc1)N1CCN(C2(C)CCN(C(=O)c3c(C)ncnc3C)CC2)C[C@@H]1C [VICRIVIROC]
Activity (Homo sapiens [1]): 20%
Activity (Homo sapiens [4]): 25%
Activity (Homo sapiens [5]): 0%
Activity (Homo sapiens [7]): 0%
Activity (Homo sapiens [8]): 0%
Activity (Homo sapiens [10]): 13%
Activity (Homo sapiens [11]): 17%
Activity (Homo sapiens [13]): 10%
Activity (Homo sapiens [16]): 13%
Activity (Homo sapiens [19]): 13%
Activity (Homo sapiens [22]): 17%
Activity (Homo sapiens [23]): 0%
Activity (Homo sapiens [24]): 0%
Activity (Homo sapiens [25]): 0%
Activity (Homo sapiens [27]): 13%
Activity (Homo sapiens [29]): 0%
Activity (Homo sapiens [32]): 38%
Activity (Homo sapiens [36]): Non-toxic
